The assay deals with K-Ras(G12C) (Homo sapiens, UniProt P01116, G12C). In words: disulphide tethering, intact protein mass spectrometry. Type of assay: binding.
Sequence of K-Ras(G12C) (P01116 1-169 isoform P01116-2 G12C): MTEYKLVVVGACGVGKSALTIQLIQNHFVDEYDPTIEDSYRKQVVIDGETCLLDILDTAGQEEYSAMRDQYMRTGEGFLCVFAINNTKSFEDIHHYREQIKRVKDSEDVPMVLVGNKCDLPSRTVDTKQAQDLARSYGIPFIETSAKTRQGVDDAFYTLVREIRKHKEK

`CN(C)CCSSCCNC(=O)C1CCN(C(=O)CSc2ccc(Cl)cc2)CC1` [6H05]: the “% modification” value is reported as 94 ± 1 % modification.

For the origin of these results see paper PMC4274051 (Nature, 2013).
